The target in experiment [1] is T1, EF2K (Homo sapiens, UniProt O00418).
T1 construct: host or cells: LN-229 glioblastoma cell lysate
T1 sequence (O00418 1-725): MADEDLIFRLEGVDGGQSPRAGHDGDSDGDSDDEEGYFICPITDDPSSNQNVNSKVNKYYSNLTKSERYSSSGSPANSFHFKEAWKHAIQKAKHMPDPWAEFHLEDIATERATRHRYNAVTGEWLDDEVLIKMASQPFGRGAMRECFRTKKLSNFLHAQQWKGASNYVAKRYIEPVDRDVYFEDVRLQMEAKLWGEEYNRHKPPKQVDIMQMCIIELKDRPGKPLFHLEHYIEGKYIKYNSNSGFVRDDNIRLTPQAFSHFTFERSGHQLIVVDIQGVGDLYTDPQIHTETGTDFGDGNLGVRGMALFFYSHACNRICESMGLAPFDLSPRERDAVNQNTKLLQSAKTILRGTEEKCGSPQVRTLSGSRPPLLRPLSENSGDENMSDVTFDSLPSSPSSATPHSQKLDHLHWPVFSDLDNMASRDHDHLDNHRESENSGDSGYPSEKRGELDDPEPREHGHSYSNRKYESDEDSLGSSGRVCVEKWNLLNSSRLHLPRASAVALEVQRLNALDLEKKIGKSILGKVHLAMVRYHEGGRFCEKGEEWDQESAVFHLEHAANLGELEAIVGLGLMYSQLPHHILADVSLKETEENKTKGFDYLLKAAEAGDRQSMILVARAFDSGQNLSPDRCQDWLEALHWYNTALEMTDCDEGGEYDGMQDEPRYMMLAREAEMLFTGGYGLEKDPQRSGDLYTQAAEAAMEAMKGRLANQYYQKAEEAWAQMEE
Put plainly: Biochemical EF2K lysate-based kinase assay (AlphaLISA p-eEF2 Thr56). The following applies: LN-229 cell lysates, 10 mM ATP, pH 6.6; pIC50 = -log IC50 (M); read-out: eEF2K_C_alphalisa pIC50 (converted). The source says:
LN-229 cells were purchased from ATCC (CRL-2611); these are glioblastoma cells. Cell lysates from LN229 were used in this kinase assay to provide both the kinase and the substrate (EF2). The AlphaLISA p-eEF2 (Thr56) detection assay was developed using a sandwich assay format with two specific antibodies recognizing different epitopes of the target, including one antibody against the phosphorylation site of interest. One anti-eEF2 antibody was conjugated onto AlphaLISA Acceptor beads, while the second antibody was biotinylated and captured by streptavidin coated Donor beads.
Compound was mixed with LN-229 cell lysates in the presence of a kinase buffer (e.g. HEPES) at a pH of 6.6, containing 10 mM Mg^2+ (e.g. magnesium acetate) and 10 mM adenosine-tri-phosphate (ATP) and incubated at room temperature for 15 minutes. The kinase reaction was stopped with excess ethylenediaminetetraacetic acid disodium salt and the biotinylated-anti phospho eEF2 antibody (3 nM) was added for 1 hour. Then the anti-EF2 acceptor beads (10 μg/ml) as well as the streptavidin coated donor beads (20 μg/ml) were added for 1 hour, and the AlphaLISA signal was measured in an Envision instrument once, left overnight, and measured again for the final read.

Experiment [2] deals with T2, eEF2K (Homo sapiens, UniProt O00418).
T2 construct: in the immortalized epithelial breast cell lines, MCF10A; host or cells: MCF10A immortalized breast epithelial cells
T2 sequence (O00418 1-725): T1 sequence (O00418 1-725)
Put plainly: EF2K cell-based assay (P-EF2 AlphaLISA, 2-deoxyglucose stimulated MCF10A cells). To be noted: 2.5 mM 2-deoxyglucose 4 h, phosphorylation of EF2 at Thr 56, pIC50 = -log IC50 (M), read-out: eEF2K_C_PThr56 pIC50 (converted). As for the experimental part: In this assay, 2.5 mM 2-deoxyglucose was used to deplete intracellular ATP and activate 5′ adenosine monophosphate-activated protein kinase (AMPK) in the immortalized epithelial breast cell lines, MCF10A. MCF 10A cells were purchased from ATCC (CRL-10317).
MCF10A cells are seeded at a density of 1.25×10^5 Cells/ml at 100 μl/well in a 96-well plate and incubated for 24 hours (37° C., 5% CO2). Compound is added for 1 hour, and cell are stimulated with 2.5 mM of 2-deoxy-glucose for 4 hours. Medium is then removed, and cells are lysed in an ice-cold buffer M-PER (Thermo Scientific, 78501), containing protease and phosphatase inhibitors. P-EF2 levels are determined in these lysates using the P-EF2 AlphaLISA described above.

Molecules are shown by their SMILES. A value given as a limit tells only on which side of the number the result lay.

Turning to `CC1c2cccc(c2F)Nc2cc(ccn2)-c2cnc(nc2)NCCCNC(=O)C2(CC2)N2CCN1CC2` (single isomer, unassigned) [Compound 11], the IC50 in experiment [1] was 2.75e-09 M; in experiment [2] it was 2.88e-07 M. For `CC1c2cccc(c2F)Nc2cc(ccn2)-c2cnc(nc2)NCCCNC(=O)C2(CC2)N2CCN1CC2` (single isomer, unassigned) [Compound 12], in that order: 1.45e-07 M and more than 1e-05 M. As to `CC1c2cccc(c2)Nc2cc(ccn2)-c2cnc(nc2)NCCCNC(=O)C2(CC2)N2CCN1CC2` (single isomer, unassigned) [Compound 22], the IC50 in experiment [1] was approximately 1.05e-08 M; in experiment [2], 3.63e-07 M.

Regarding `O=C1CN2CCN(CC2)Cc2cccc(c2)Nc2cc(ccn2)-c2cnc(nc2)C2CCCN2CCN1` (single isomer, unassigned) [Compound 138], the IC50 in experiment [1] was approximately 1.58e-06 M. As for `O=C1CN2CCN(CC2)Cc2cccc(c2)Nc2cc(ccn2)-c2cnc(nc2)C2CCCN2CCN1` (single isomer, unassigned) [Compound 139], the IC50 in experiment [1] was 7.59e-06 M; in experiment [2], more than 1e-05 M.

In the case of `O=C1NCCCNc2ncc(cn2)-c2ccnc(c2)Nc2cccc(c2F)CN2CCN(CC2)C12CC2` [Compound 20], the values for the IC50 in experiment [1] and in experiment [2] were 3.98e-09 M and 1.66e-07 M, respectively. For `O=C1CN2CCN(CC2)Cc2cccc(c2)Nc2cc(ccn2)-c2cnc(nc2)N2CCC2CCN1` (stereo not shown) [Compound 49], in that order: 2.51e-05 M and more than 1e-05 M. For the compound `O=C1CN2CCN(CC2)Cc2cc(ccc2F)Nc2cc(ccn2)-c2cnc(nc2)N2CC(O)CC2CCN1` (stereo not shown) [Compound 50], the IC50 in experiment [1] is 1.02e-08 M; in experiment [2], 3.55e-07 M. As for `O=C1CN2CCN(CC2)Cc2cc(ccn2)Nc2cc(ccn2)-c2cnc(nc2)N2CC(O)CC2CCN1` (stereo not shown) [Compound 51], in experiment [2], the IC50 was approximately 1e-05 M. Take `CC1c2cccc(c2F)Nc2cc(ccn2)-c2cnc(nc2)N2CC(O)CC2CCNC(=O)C2(CC2)N2CCN1CC2` (stereo not shown) [Compound 52]: the results for the IC50 in experiment [1] and in experiment [2] were 5.37e-09 M and 7.59e-08 M, respectively.

As for `O=C1NCCC2CC(O)CN2c2ncc(cn2)-c2ccnc(c2)Nc2cccc(c2)CN2CCN(CC2)C12COC2` (stereo not shown) [Compound 63], the IC50 in experiment [1] is 1.95e-08 M; in experiment [2], 1.74e-06 M. For `O=C1NCCC2CC(O)CN2c2ncc(cn2)-c2ccnc(c2)Nc2cccc(c2)CN2CCN(CC2)C12COC2` (stereo not shown) [Compound 64], in that order: 5.13e-09 M and 3.89e-07 M. For `CN1CCCNc2ccc(cn2)-c2ccnc(c2)Nc2cccc(c2)CN2CCN(CC2)CC1=O` [Compound 69], in that order: 1.41e-05 M and more than 3.02e-05 M. As for `N#CC1CC2CCNC(=O)C3(CC3)N3CCN(CC3)Cc3cccc(c3)Nc3cc(ccn3)-c3cnc(nc3)N2C1` (stereo not shown) [Compound 79], the IC50 in experiment [1] was 9.77e-08 M; in experiment [2], 1.15e-06 M. Regarding `O=C1CN2CCN(CC2)Cc2cccc(c2)Nc2cc(ccn2)-c2cnc(nc2)N2CC(F)CC2CCN1` (stereo not shown) [Compound 80], the IC50 in experiment [1] is 1e-08 M; in experiment [2], 6.31e-07 M. For the compound `O=C1CN2CCN(CC2)Cc2cccc(c2)Nc2cc(ccn2)-c2cnc(nc2)N2CC=CC2CCN1` (stereo not shown) [Compound 81], the IC50 was 4.9e-09 M in experiment [1] and 3.09e-07 M in experiment [2]. For `[N-]=[N+]=N[C@@H]1C[C@H]2CCNC(=O)CN3CCN(CC3)Cc3cccc(c3)Nc3cc(ccn3)-c3cnc(nc3)N2C1` [Compound 82], in that order: 1.86e-08 M and 7.08e-07 M. On to `NC1CC2CCNC(=O)C3(CC3)N3CCN(CC3)Cc3cccc(c3)Nc3cc(ccn3)-c3cnc(nc3)N2C1` (stereo not shown) [Compound 85], for which the results for the IC50 in experiment [1] and in experiment [2] were 2.75e-08 M and 1.1e-06 M, respectively.

Turning to `O=C1NCCCNc2ncc(cn2)-c2ccnc(c2)Nc2cccc(c2F)OC2CCN(CC2)C12CC2` [Compound 89], the IC50 in experiment [1] was approximately 4.47e-09 M; in experiment [2] it was 3.24e-07 M. For `O=C1CN2CCC(CC2)Oc2cccc(c2F)Nc2cc(ccn2)-c2cnc(nc2)NCCCN1` [Compound 91], in that order: 1.35e-08 M and 7.24e-07 M. For `O=C1CN2CC(C2)Oc2cccc(c2)Nc2cc(ccn2)-c2cnc(nc2)NCCCN1` [Compound 92], in that order: 1.26e-07 M and 1.17e-06 M.

Regarding `O=C1CN2CCC(C2)Oc2cccc(c2)Nc2cc(ccn2)-c2cnc(nc2)NCCCN1` (stereo not shown) [Compound 93], the IC50 was 7.94e-08 M in experiment [1] and 6.31e-07 M in experiment [2]. For `O=C1CN2CCCC(CC2)Oc2cccc(c2)Nc2cc(ccn2)-c2cnc(nc2)NCCCN1` (stereo not shown) [Compound 94], in that order: 6.61e-08 M and 6.76e-07 M.

As to `O=C1NCCCNc2ncc(cn2)-c2ccnc(c2)Nc2cccc(c2)OC2CCN(CC2)C12CC2` [Compound 95], the IC50 in experiment [1] was 6.76e-09 M; in experiment [2], approximately 6.46e-07 M. For `O=C1NCCC2CC(O)CN2c2ncc(cn2)-c2ccnc(c2)Nc2cccc(c2F)OC2CCN(CC2)C12CC2` (stereo not shown) [Compound 96], in that order: 3.98e-09 M and 8.13e-08 M. For `O=C1NCCC2CC(O)CN2c2ncc(cn2)-c2ccnc(c2)Nc2cccc(c2)OC2CCN(CC2)C12CC2` (stereo not shown) [Compound 97], in that order: 1.82e-09 M and 3.31e-07 M. For `O=C1CN2CCC(CC2)Oc2cccc(c2)Nc2cc(ccn2)-c2cnc(nc2)N2CC(O)CC2CCN1` (stereo not shown) [Compound 99], the IC50 is 3.09e-08 M in experiment [1] and 1.07e-06 M in experiment [2]. For `CN1c2cccc(c2)Nc2cc(ccn2)-c2cnc(nc2)NCCCNC(=O)C2(CC2)N2CCC1CC2` [Compound 102], in that order: 8.13e-08 M and 1.32e-06 M. In the case of `CN1c2cccc(c2F)Nc2cc(ccn2)-c2cnc(nc2)NCCCNC(=O)C2(CC2)N2CCC1CC2` [Compound 103], the IC50 in experiment [1] is 1.91e-07 M; in experiment [2] it was 1.62e-06 M.

For the compound `CN1c2cccc(c2F)Nc2cc(ccn2)-c2cnc(nc2)N2CC(O)CC2CCNC(=O)C2(CC2)N2CCC1CC2` (stereo not shown) [Compound 105], the IC50 in experiment [2] was 7.94e-07 M. Turning to `CC(=O)NCCCCC1C(=O)NCCCNc2ncc(cn2)-c2ccnc(c2)Nc2cccc(c2)CN2CCN1CC2` (stereo not shown) [Compound 109], the IC50 in experiment [1] was 3.55e-07 M; in experiment [2] it was more than 1e-05 M. As to `NCCCCC1C(=O)NCCCNc2ncc(cn2)-c2ccnc(c2)Nc2cccc(c2)CN2CCN1CC2` (stereo not shown) [Compound 113], in experiment [2], the IC50 was 5.5e-06 M. Regarding `CC(=O)NCCCOCC1CN2CCN1Cc1cccc(c1)Nc1cc(ccn1)-c1cnc(nc1)NCCCNC(=O)C2` (stereo not shown) [Compound 115], the figures for the IC50 in experiment [1] and in experiment [2] were 1.51e-07 M and 4.37e-07 M, respectively. Regarding `O=C1CN2CCN(CC2)Cc2cccc(c2)Nc2cc(ccn2)-c2cnc(nc2)NC(CC2CC2)CCN1` (stereo not shown) [Compound 125], the IC50 was 5.75e-06 M in experiment [1] and more than 1e-05 M in experiment [2].

Turning to `COCCN1CCNC(=O)CN2CCN(CC2)Cc2cccc(c2)Nc2cc(ccn2)-c2cnc(nc2)C1` [Compound 129], the IC50 is 2.69e-05 M in experiment [1] and more than 1e-05 M in experiment [2]. Take `CC1NCCNC(=O)CN2CCN(CC2)Cc2cccc(c2)Nc2cc(ccn2)-c2cnc1nc2` (stereo not shown) [Compound 133]: the IC50 was more than 3.02e-05 M in experiment [1] and approximately 1e-05 M in experiment [2]. For the compound `CC1NCCNC(=O)CN2CCN(CC2)Cc2cccc(c2)Nc2cc(ccn2)-c2cnc1nc2` (stereo not shown) [Compound 134], the IC50 in experiment [1] was 1.12e-05 M; in experiment [2] it was more than 1e-05 M. With `O=C1CN2CCN(CC2)Cc2cccc(c2)Nc2cc(ccn2)-c2ccc(nc2)N2CCCC2CCN1` (stereo not shown) [Compound 141], the IC50 in experiment [2] is approximately 3.63e-06 M. For the compound `O=C1CN2CCN(CC2)Cc2cccc(c2)Nc2cc(ccn2)-c2ccc(nc2)CNCCN1` [Compound 145], the IC50 in experiment [1] was approximately 5.5e-06 M; in experiment [2], more than 1e-05 M.

These data come from patent US20170022201A1, “MACROCYLIC PYRIDINE DERIVATIVES” (Janssen Pharmaceutica NV, priority 2014, published 2017).
